According to patent US20080306166A1, “Compositions and Methods For Treatment of Disorders of Protein Aggregation” (priority 2004, published 2008):
“Also recorded” adds a separate entry of the source. Marks after values point to notes of the source that are not given here.

Tests used:
TgCRND8 mice [1] = test: Morris Water Maze spatial reference memory test in TgCRND8 mice; format: in vivo, mouse
Description: Mice. […] This initial dosage was chosen based upon the dosage of myo-cyclohexanehexyl (6-18 grams/day/adult or 86-257 mg/Kg/day) that is typically administered to human patients for various psychiatric disorders. […] A cohort of animals (n=10 mice per treatment arm) entered the study at five months of age, and outcomes were then analyzed after one month of treatment. The body weight, coat characteristics and in cage behaviour were monitored. Mannitol was used as a negative control for potential alterations in caloric intake. All experiments were performed according to the Canadian Council on Animal Care guidelines. Behavioural tests: Morris Water Maze testing was performed as previously described. After non-spatial pre-training, mice underwent place discrimination training for 5 days with 4-trials per day, followed by a cued visible platform to rule out general motivational, learning deficits and motor problems, and a probe trial to evaluate memory. […] Open field test for motor activity was preformed as described previously. Duration of walking, pausing and grooming were analyzed as indices of spontaneous locomotor activity. Sensorimotor function was examined with an Economex™ accelerating rotarod (Columbus Instruments, Columbus, Ohio), as described elsewhere. The rod was set to accelerate at a rate of 0.2 r.p.m./s, from an initial, constant speed of 5 r.p.m. Latency to fall was recorded in four daily trials, conducted at 30 min intervals. All mice were trained for seven days before testing. The test day performance score for each animal was obtained by summing its latency to fall over the four trials. Cerebral amyloid burden. Brains were removed and one hemisphere was fixed in 4% paraformaldehyde and embedded in paraffin wax in the mid sagittal plane. To generate sets of systematic uniform random sections, 5 μm serial sections were collected across the entire hemisphere. Sets of sections at 50 μm intervals were used for analyses (10-14 sections/set). Plaques were identified after antigen retrieval with formic acid, and incubation with primary anti-AD antibody (Dako M-0872), followed by secondary antibody (Dako StreptABCcomplex/horseradish kit). End products were visualized with DAB and were counter-stained with luxol fast blue. Amyloid plaque burden was assessed with Leco IA-3001 image analysis software interfaced with Leica microscope and Hitachi KP-M1U CCD video camera. Openlab imaging software (Improvision, Lexington, Mass.) was then used to convert micrographs to binary images for plaque number and plaque area determinations. Vascular amyloid burden was defined as amyloid originating from or surrounding blood vessels and was analysed similarly. Plasma and Cerebral Aβ Content. Hemi-brain samples were homogenized in a buffered sucrose solution, followed by either 0.4% diethylamine/100 mM NaCl for soluble Aβ levels or cold formic acid for the isolation of total Aβ. After neutralization, the samples were diluted and analyzed for Aβ40 and Aβ42 using commercially available kits (BIOSOURCE International). Each hemisphere was analyzed intriplicate and the mean values ±SEM reported. Western blot analyses were performed on all fractions using urea gels for Aβ species analyses. Aβ was detected using 6E10 (BIOSOURCE International) and Enhanced Chemiluminenscence (Amersham). Gliosis Quantitation. Five randomly selected, evenly spaced, sagittal sections were collected from paraformaldehyde-fixed and frozen hemispheres of treated and control mice. […]

TgCRND8 mice [2] = test: Cerebral amyloid plaque burden (anti-Aβ immunostaining, image analysis); format: in vivo, mouse; settings: TgCRND8 mice
Description: Mice. […] This initial dosage was chosen based upon the dosage of myo-cyclohexanehexyl (6-18 grams/day/adult or 86-257 mg/Kg/day) that is typically administered to human patients for various psychiatric disorders. […] A cohort of animals (n=10 mice per treatment arm) entered the study at five months of age, and outcomes were then analyzed after one month of treatment. The body weight, coat characteristics and in cage behaviour were monitored. Mannitol was used as a negative control for potential alterations in caloric intake. All experiments were performed according to the Canadian Council on Animal Care guidelines. Behavioural tests: Morris Water Maze testing was performed as previously described. After non-spatial pre-training, mice underwent place discrimination training for 5 days with 4-trials per day, followed by a cued visible platform to rule out general motivational, learning deficits and motor problems, and a probe trial to evaluate memory. […] Open field test for motor activity was preformed as described previously. Duration of walking, pausing and grooming were analyzed as indices of spontaneous locomotor activity. Sensorimotor function was examined with an Economex™ accelerating rotarod (Columbus Instruments, Columbus, Ohio), as described elsewhere. The rod was set to accelerate at a rate of 0.2 r.p.m./s, from an initial, constant speed of 5 r.p.m. Latency to fall was recorded in four daily trials, conducted at 30 min intervals. All mice were trained for seven days before testing. The test day performance score for each animal was obtained by summing its latency to fall over the four trials. Cerebral amyloid burden. Brains were removed and one hemisphere was fixed in 4% paraformaldehyde and embedded in paraffin wax in the mid sagittal plane. To generate sets of systematic uniform random sections, 5 μm serial sections were collected across the entire hemisphere. Sets of sections at 50 μm intervals were used for analyses (10-14 sections/set). Plaques were identified after antigen retrieval with formic acid, and incubation with primary anti-AD antibody (Dako M-0872), followed by secondary antibody (Dako StreptABCcomplex/horseradish kit). End products were visualized with DAB and were counter-stained with luxol fast blue. Amyloid plaque burden was assessed with Leco IA-3001 image analysis software interfaced with Leica microscope and Hitachi KP-M1U CCD video camera. Openlab imaging software (Improvision, Lexington, Mass.) was then used to convert micrographs to binary images for plaque number and plaque area determinations. Vascular amyloid burden was defined as amyloid originating from or surrounding blood vessels and was analysed similarly. Plasma and Cerebral Aβ Content. Hemi-brain samples were homogenized in a buffered sucrose solution, followed by either 0.4% diethylamine/100 mM NaCl for soluble Aβ levels or cold formic acid for the isolation of total Aβ. After neutralization, the samples were diluted and analyzed for Aβ40 and Aβ42 using commercially available kits (BIOSOURCE International). Each hemisphere was analyzed intriplicate and the mean values ±SEM reported. Western blot analyses were performed on all fractions using urea gels for Aβ species analyses. Aβ was detected using 6E10 (BIOSOURCE International) and Enhanced Chemiluminenscence (Amersham). Gliosis Quantitation. Five randomly selected, evenly spaced, sagittal sections were collected from paraformaldehyde-fixed and frozen hemispheres of treated and control mice. Sections were immunolabelled for astrocytes with anti-rat GFAP IgG2a, (Dako; diluted 1:50) and for microglia with anti-rat CD68 IgG2b (Dako; 1:50).

Aβ oligomers = test: IP/Western blot of Aβ oligomers in 7PA2 conditioned medium; format: cell-based, human
Description: (§1) Preparation of conditioned media: CHO— or 7PA2 cells were grown to ˜90% confluency. The cells were washed 1× in serum-free DMEM, then incubated overnight (˜15 hrs) in 4 ml/10 cm dish in serum-free DMEM, pen/strep, 1-glutamine with/without AZD-103. The following day, the conditioned media (CM) was collected, spun at 1000×g and treated with complete protease inhibitors (in mg/ml 1 leupeptin, 1 pepstatin, 0.1 aprotinin, 40 EDTA, and 2 mM 1/10 phenantroline) for biochemistry experiments or cell culture compatible protease inhibitors (Sigma P1860 1:1000) for electrophysiology experiments. The CM was stored at −80° C. until sufficient volumes were collected to complete a “batch”—typically ˜300 ml. […] The resulting concentrate was pooled, aliquoted in 1 ml fractions, and stored at −80° C. […] Therefore, for any given set of experiments (i.e. dose response curve, time curve, etc), a single batch is prepared and compared to 7PA2 alone within that batch.
IP/Western blots: 8 ml of 7PA2 CM were precleared with 40 μl of protein A agarose for 30 min. The beads were spun down, and […] of the polyclonal anti-Aβ antibody R1282 was added to the supernatant with an additional 40 μl of protein A agarose. These samples were nutated at 4° C. overnight. The beads were washed with a series of buffers 0.5 STEN (sodium chloride, tris, EDTA, NP-40), SDS STEN, STEN. 2× tricine sample buffer was added to the washed beads, which were then boiled, centrifuged, and the resulting supernatant loaded onto 10-20% tricine gels. The proteins were then transferred to nitrocellulose, and probed with the anti-Aβ antibody 6E10.

7PA2 cells = test: Toxicity observations in 7PA2 cells and LTP controls; format: cell-based, Chinese Hamster; settings: APPs expression, LTP in CHO-/AZD-103 conditions
Description: as §1

TgCRND8 mice [3] = test: Two-month treatment of TgCRND8 mice, cognition and pathology; format: in vivo, mouse; settings: TgCRND8 mice treated for 2 months, ending at 7 months of age
Description: Scyllo-inositol was also administered to […]8 mice for 2 months, ending at 7 months of age.

[4] = six month old TgCRND8 mice, 28 days treatment from 5 months
[5] = 28 day course at 5 months of age, vs untreated
[6] = oral, 28 days from 5 months of age, 6 months of age, listed as Scyllo-cyclohexanehexol

With `OC1C(O)C(O)C(O)C(O)C1O` (stereo not drawn) [scyllo-cyclohexanehexyl, 1,3,5/2,4,6-(scyllo-) cyclohexanehexyl] the “probe trial, % time in target quadrant” value (TgCRND8 mice [1]; separate cohort of treated TgCRND8 mice vs non-Tg littermates) was “not statistically different from non-Tg littermates”, the “spatial learning performance compared to non-Tg littermates” value (TgCRND8 mice [1]; [4]) was “indistinguishable from that of their non-Tg littermates” and the “spatial learning performance compared to untreated TgCRND8 littermates” value (TgCRND8 mice [1]; [4]) was “significantly better behavioural performance compared to untreated TgCRND8 mice; also recorded: significantly better than untreated TgCRND8 littermates”. For the same compound, the “percent area of the brain covered by plaques, reduction” value (TgCRND8 mice [2]; [5]) was 14±0.5%, the plaque number reduction (TgCRND8 mice [2]; [5]) was 13±0.3% and the plaque size reduction (TgCRND8 mice [2]; [5]) was 16±0.4%. The “plaque burden in the hippocampus” value (TgCRND8 mice [2]; one month of treatment, anti-Aβ antibody staining) was “lower plaque burden”, the “Mean Plaque Size” value (TgCRND8 mice [2]; [6]) was 336 ± 6* μm^2 and the “Total Plaque Area” value (TgCRND8 mice [2]; [6]) was 420027 ± 14986* μm^2. The “Total Plaque Count” value (TgCRND8 mice [2]; [6]) was 1260 ± 27, the “Aβ dimer on Western blots” value (Aβ oligomers; applied to 7PA2 CM (post-cond)) was “seemed unaffected” and the “Aβ trimer on Western blots” value (Aβ oligomers; applied to 7PA2 CM (post-cond), 1.25 μM) was “reduced the detectability of the Aβ trimer”. The “Aβ dimer and trimer levels, dose response by Western blot” value (Aβ oligomers; pre-cond and post-cond, measured absolutely and normalized to monomer) was “appeared to reduce dimer and trimer levels”, the toxicity (7PA2 cells) was “No direct evidence of AZD-103 toxicity” and the “effects on cognition and pathology” value (TgCRND8 mice [3]) was “Sustained effects both on cognition and pathology were observed”.
